Results published in patent publication US6689764B1, “Treatment of angiogenesis dependent conditions with dextrin sulphate” (priority 1999, dated 2004).

How the values were obtained:
[1] = test system: human placental blood vessels; test: Placental blood vessel in fibrin clot in vitro angiogenesis assay; type: cell-based; conditions: 100 μg/ml, up to day 22
Description: Compounds were tested at a final concentration of 100 μg/ml. The degree of new vessel formation was quantified blind twice a week using a visual analog scale in which 0=no growth, 1=minimal new vessel formation, 2=significant new vessel formation, and 3=dense new vessel formation. An angiogenesis score was derived from each count by dividing the total score (i.e. the sum of all the wells) by the maximum possible score and then expressing the result as a percentage. This graph is representative of 3 experiments with a total of 20 wells/plate/experiment for each compound tested.
Blood vessels (approximately 1-2 mm diameter) were excised from the apical surface of human placentas within 6 h of an elective Caesarean birth. Use of the placentas for these studies were approved by the Ethics Committee of Hammersmith Hospitals Trust, London. The blood vessels were placed in Hank's balanced salt solution and cut into 1-2 mm fragments using fine dissecting forceps and iridectomy scissors. Residual clots were removed and the blood vessels then soaked in Hank's balanced salt solution.
The effect of each compound on new blood vessel formulation was determined by culturing the blood vessels within a fibrin clot in 24-well tissue culture plates. Thirty μl of bovine thrombin (50 NIH U/ml in 0.15 M sodium chloride) was added to each well followed by 1 ml/well of 3 mg/ml bovine fibrinogen in Medium 199. The thrombin and fibrinogen were rapidly mixed and a blood vessel fragment placed in the centre of the well. Fibrin gel formation occurred rapidly and left the vessel suspended within the gel. One ml/well of Medium 199 supplemented with 20% foetal calf serum, 250 IU/ml penicillin and 250 U/ml streptomycin was then added to each well. ε-arnino-n-caproic acid was also added (300 μg/ml) for the first 4 days and twice weekly thereafter (50 μg/ml) in order to prevent dissolution of the fibrin clot. The vessels were cultured at 37° C. in a humidified incubator for 25 days with the media being changed twice weekly.
The degree of new vessel formation was quantified blind twice a week by three different observers using a visual analogue scale in which 0=no growth, 1=very little new vessel formation, 2=significant new vessel formation and 3=dense new vessel formation. An angiogenesis score was derived from the counts undertaken for each well by dividing the total score by the maximum score possible and then expressing the result as a percentage. On each of 3 separate occasions, each compound was tested in 20 replicate wells. […] Some of the fibrin clots were fixed overnight in 10% formalin, paraffin embedded, sectioned for histology and then stained for the endothelial cell markers Factor VIII and CD31. Results are expressed as the mean±sem. A students t-test was used to determine the level of significance.

ECV304 cells = test: In vitro proliferation, MTT uptake; type: cell-based, human
Description: (§1) SK-HEP-1 is a human liver adenocarcinoma with endothelial morphology and ECV304 is a human urinary bladder carcinoma with endothelial-like characteristics. Both cell lines were obtained from the ECACC. HUVEC was provided as a growing culture by TCS Biologicals.
(§2) Cells were grown and prepared in RPMI medium containing 10% FCS and 2mM glutamine. For the in vitro assays, cells were harvested with 0.025% EDTA, washed in the culture medium and plated into 96-well plates at 5×10^3 and 1×10^4 cells/well in a volume of 100 μl. After 24 hours, to allow for cell adherence, the medium was replaced with fresh medium containing dextrin sulphate at concentrations of 0, 1, 5, 10, 50, 100, 500, 1000 μg/ml. After 48 hours, proliferation was assessed by methyl thiazol tetrazolium (MTT) uptake as follows:
(§3) MTT (Sigma) was added to the wells in a 50 μl volume at a concentration of 1mg/ml. After 4 hours incubation the insoluble formazan crystals were solubilised by the addition of 75 μl DMSO/well and the absorbance measured at 550 nm.
(§4) Dextrin sulphate was assessed in two separate experiments. All experiments were performed with two different cell-seeding concentrations. […] To compare between cell lines and experiments, the level of inhibition achieved at the highest concentration evaluated (1000 μg/ml) was calculated as was the significance from the untreated control. (See FIG. 11).

SK-HEP-1 cells = test: In vitro proliferation, MTT uptake; type: cell-based, human
Description: as §1, §2, §3, §4

HUVEC cell line = test: TCS Biologicals Human Angiogenesis Model (tubule formation); type: cell-based
Description: The effect of sulphated dextrin on vessel formation of the HUVEC cell line was performed by the use of the TCS Biologicals Human Angiogenesis Model. The assay is supplied as a growing culture of the HUVEC cell line together with culture matrix and additional human cells present (the exact nature of the cells is not known) at the earliest stages of tubule formation in a 24-well format. The positive control reagent was a standard stock solution of VEGF and the negative control was Suramin. After removing the well seals, the cultures were examined for cell morphology to confirm their viability.
Growth medium was provided with the kit and was used to make up the sulphated dextrin at concentrations ranging from 0-1000 μg/ml. The existing medium was aspirated from the wells and replaced with medium containing the dextrin sulphate concentrations in a 0.5ml volume. This was placed at 37° C., in a 5% CO2 containing atmosphere. This was repeated on days 4, 7 and 9.
Between days 7-11 cultures were fixed by the enclosed fixative and stained with the mouse monoclonal anti-PECAM-1 antibody at a 1:4000 dilution (present in blocking buffer). 0.5ml of diluted antibody was added per well and incubated for 60 minutes at 37° C. The secondary antibody (goat anti-mouse lgG alkaline phosphatase conjugate) was diluted 1:500 in blocking buffer and added to the wells after washing for 60 minutes at 37° C. After washing the plate the substrate was prepared; BCIP/NBT tablets were dissolved in distilled water and added to the wells. Following incubation for 5-10 minutes the wells were washed and were imaged using the Leica Qwin image analysis software package.

[2] = test system: AP5LV human colorectal xenograft; test: AP5LV human colorectal xenograft in SCID mice; type: in vivo
Description: Dextrin sulphate, 10 mg/kg in 1ml icodextrin was administered every second day to two male SCID micc. Dosing continued for 14 days.
The cell line evaluated, AP5LV, is a variant of an established human colorectal cell line, derived originally from a patient's primary tumour. AP5LV cells have been selected for their ability to both colonise the lungs following intravenous injection and to spontaneously metastasise to the lungs following injection of the cells into the peritoneal muscle wall. AP5LV cells were maintained in vitro in RPMI 1640 culture medium (Gibco, Paisley, UK) containing 10% (v/v) heat inactivated foetal bovine serum (Sigma, Poole, UK) at 37° C. in 5% CO2 and humidified conditions. Cells from semi-confluent monolayers were harvested with 0.025% EDTA, washed twice in the culture medium described above, and re-suspended at 5×10^6/50 μl in sterile phosphate buffered saline, pH 7.4(PBS).
The mice were anaesthetised using Hypnorm(Roche)/Hyponovel(Janssen) and the cell suspension injected into the peritoneal muscle wall of 20 male SCD mice. Mice were electronically tagged for identification purposes (RS Biotech, Tracker), and randomly allocated to two experimental groups (see below). The treatment regime was initiated on day 1 and continued every other day until termination on day 38. […]

HUVEC cells = conditions: in vitro, Thornton et al 1999; cited from earlier work

## dextrin sulphate
[1]
  new vessel formation compared to media alone: inhibits new vessel formation
ECV304 cells; ECV304, 0-1000 μg/ml, 48 hours
  inhibition of in vitro growth: moderate levels of inhibition
ECV304 cells; ECV304, 1000 μg/ml, both cell concentrations, two experiments
  level of inhibition of growth: 11-33%
ECV304 cells; ECV304, MTT assay
  concentrations at which inhibitory effects were seen: > 100 µg/mL
SK-HEP-1 cells; SK-HEP-1, 0-1000 μg/ml, 48 hours
  inhibition of in vitro growth: moderate levels of inhibition
SK-HEP-1 cells; SK-HEP-1, 1000 μg/ml, lower cell concentration
  level of inhibition of growth: ~65%
SK-HEP-1 cells; SK-HEP-1, MTT assay
  concentrations at which inhibitory effects were seen: > 100 µg/mL
SK-HEP-1 cells; SK-HEP-1, higher cell concentration
  level of inhibition of growth: not as great
HUVEC cell line; 1 μg/ml
  branch point number, % of control: 120%
  tubule branch points, reduction: 31%
HUVEC cell line; 5 μg/ml
  branch point number, % of control: 115%
HUVEC cell line; 50 μg/ml
  branch point number, inhibition: 26%
HUVEC cell line; 100 μg/ml
  branch point number, inhibition: 48%
  tubule number, inhibition: 48%
HUVEC cell line; 500 μg/ml
  branch point number, inhibition: 53%
HUVEC cell line; 1000 μg/ml
  branch point number, inhibition: 68%
  tubule branch points, reduction: 93%
  tubule number, inhibition: 68%
HUVEC cell line; all concentrations evaluated (1-1000 μg/ml)
  branch point number: inhibitory effect
HUVEC cell line; lower concentrations
  tubule number: low but significant stimulation
[2]; 10 mg/kg i.p. every second day, SCID mice
  toxicity: no toxicity
[2]; 10 mg/kg in 4% Icodextrin i.p. every second day, termination day 38, SCID mice
  reduction in final tumour weight: 28%
HUVEC cells
  proliferation of HUVEC cells: not to be directly inhibited
